# Experimental data reported in patent US7393812B2, “Methylidene mevalonates and their use as herbicides” (Dow AgroSciences LLC, priority 2004, dated 2008).
# What was measured:
# Assay in all cases: General herbicidal evaluation, postemergence
# Assay type in all cases: in vivo
# Settings in all cases: 16 days after treatment
# [1] = test system: barnyardgrass (Echinochloa crusgalli, ECHCG)
# Text: (§1) Applications of methylidene mevalonate were made either to the foliage (postemergence) or soil (preemergence). Seeds of sunflower (Helianthus annus, HELAN), morningglory (Ipomoea hederacea, IPOHE) velvetleaf (Abutilon theophrasti, ABUTH), pigweed (Amaranthus spp., AMARE), barnyardgrass (Echinochloa crusgalli, ECHCG), giant foxtail (Setaria faberi, SETFA), wild oats (Avena fatua, AVEFA), and blackgrass (Alopecurus myosuroides, ALOMY) were planted in mineral soil (sandy clay loam, 51% sand, 26% silt, 23% clay, 2.8% O.M., pH 7.8) and Metro-mix (Bulk Sak, Inc., Malvern, Ark., USA) for preemergence and postemergence treatments, respectively. Pots receiving preemergence treatments were watered immediately following application. Prior to postemergence treatment, plants were grown in the greenhouse (16 h photoperiod, 27 C) and thinned to a density of 2 to 15 plants pot^−1, depending on species. At the time of postemergence applications, plants were 8-12 days old, 3 to 10 cm in height, and in the 1- to 3-true-leaf stage. Natural light in the greenhouse was supplemented with metal halide lights that provided an average photosynthetic photon flux of 500 μmol m^−2s^−1.
# (§2) A sample of sodium methylidene mevalonate was dissolved in 4 mL of distilled water followed by 10 mL of formulation stock “B” (200 mL isopropanol, 20 mL crop oil concentrate, 0.4 g Triton X-155 [Sigma Chemical Co., St. Louis, Mo. 62718], and 78 mL water). This was followed by three 1:1 (v/v) serial dilutions using formulation stock “C” (100 mL isopropanol, 10 mL crop oil concentrate, 0.2 g Triton X-155, 390 mL water, 485 mL acetone and 15 mL DMSO).
# (§3) Treatments were made at four different doses (4000, 2000, 1000, and 500 g ha^−1). For preemergence treatments, 1.75 mL of spray solution were applied to the soil surface in each pot using a glass Cornwall syringe fitted with a Teejet SS8001E flat-fan nozzle (Spraying Systems Co., Wheaton, Ill. 60189-7900). For postemergence applications, the foliage of the test plants was sprayed using a DeVilbiss atomizer (DeVilbiss Health Car, Inc., Somerset, Pa. 15501) driven by compressed air at a pressure of 22 kPa. Untreated controls were included.
# (§4) Pots were placed in the greenhouse following compound application. Pots from postemergence and preemergence were sub-irrigated and top-watered, respectively, as needed for the duration of the test. […]
# [2] = test system: sunflower (Helianthus annus, HELAN)
# Text: as §1, §2, §3, §4
# [3] = test system: pigweed (Amaranthus spp., AMARE)
# Text: as §1, §2, §3, §4
# [4] = test system: wild oats (Avena fatua, AVEFA)
# Text: as §1, §2, §3, §4
# [5] = test system: giant foxtail (Setaria faberi, SETFA)
# Text: as §1, §2, §3, §4
# [6] = test system: morningglory (Ipomoea hederacea, IPOHE)
# Text: as §1, §2, §3, §4
# [7] = test system: blackgrass (Alopecurus myosuroides, ALOMY)
# Text: as §1, §2, §3, §4
# [8] = test system: velvetleaf (Abutilon theophrasti, ABUTH)
# Text: as §1, §2, §3, §4
structure (smiles),measurement,setting,value
"C=C(CO)C(C)(O)CC(=O)O (centres unmarked) [methylidene mevalonate, 3-hydroxy-4-(hydroxymethyl)-3-methylpent-4-enoic acid]",Visual Injury (%),"[1]; 0.5 kg ha^−1, ECHCG",60%
same,Visual Injury (%),"[1]; 1.0 kg ha^−1, ECHCG",70%
same,Visual Injury (%),"[1]; 2.0 kg ha^−1, ECHCG",70%
same,Visual Injury (%),"[1]; 4.0 kg ha^−1, ECHCG",90%
same,Visual Injury (%),"[2]; 0.5 kg ha^−1, HELAN",30%
same,Visual Injury (%),"[2]; 1.0 kg ha^−1, HELAN",40%
same,Visual Injury (%),"[2]; 2.0 kg ha^−1, HELAN",60%
same,Visual Injury (%),"[2]; 4.0 kg ha^−1, HELAN",70%
same,Visual Injury (%),"[3]; 0.5 kg ha^−1, AMARE",30%
same,Visual Injury (%),"[3]; 1.0 kg ha^−1, AMARE",50%
same,Visual Injury (%),"[3]; 2.0 kg ha^−1, AMARE",40%
same,Visual Injury (%),"[3]; 4.0 kg ha^−1, AMARE",50%
same,Visual Injury (%),"[4]; 0.5 kg ha^−1, AVEFA",40%
same,Visual Injury (%),"[4]; 1.0 kg ha^−1, AVEFA",60%
same,Visual Injury (%),"[4]; 2.0 kg ha^−1, AVEFA",60%
same,Visual Injury (%),"[4]; 4.0 kg ha^−1, AVEFA",85%
same,Visual Injury (%),"[5]; 0.5 kg ha^−1, SETFA",40%
same,Visual Injury (%),"[5]; 1.0 kg ha^−1, SETFA",50%
same,Visual Injury (%),"[5]; 2.0 kg ha^−1, SETFA",50%
same,Visual Injury (%),"[5]; 4.0 kg ha^−1, SETFA",70%
same,Visual Injury (%),"[6]; 0.5 kg ha^−1, IPOHE",60%
same,Visual Injury (%),"[6]; 1.0 kg ha^−1, IPOHE",60%
same,Visual Injury (%),"[6]; 2.0 kg ha^−1, IPOHE",65%
same,Visual Injury (%),"[6]; 4.0 kg ha^−1, IPOHE",75%
same,Visual Injury (%),"[7]; 0.5 kg ha^−1, ALOMY",30%
same,Visual Injury (%),"[7]; 1.0 kg ha^−1, ALOMY",30%
same,Visual Injury (%),"[7]; 2.0 kg ha^−1, ALOMY",60%
same,Visual Injury (%),"[7]; 4.0 kg ha^−1, ALOMY",60%
same,Visual Injury (%),"[8]; 0.5 kg ha^−1, ABUTH",40%
same,Visual Injury (%),"[8]; 1.0 kg ha^−1, ABUTH",60%
same,Visual Injury (%),"[8]; 2.0 kg ha^−1, ABUTH",60%
same,Visual Injury (%),"[8]; 4.0 kg ha^−1, ABUTH",65%
